Literature values in patent US20210128641A1, “COMPOSITIONS AND METHODS FOR TREATING SKIN AND MUCOUS MEMBRANE DISEASES” (The Regents of the University of California, priority 2014, published 2021).

What was measured:
[1] = tested on: Propionibacterium acnes; conditions: in vitro
[2] = tested on: keratinocytes; conditions: in vitro

Row | Substance | growth of Propionibacterium acnes on agar plates [1] | death of keratinocytes caused by Staphylococcus aureus [2]
1 | Lactobacillus acidophilus | inhibit growth | –
2 | Lactobacillus plantarum | inhibit growth | –
3 | Lactobacillus reuteri | – | reduced death
